Patent publication US5602106A, “16-membered macrolide derivatives” (priority 1993, dated 1997)
Converted amounts (≈) assume the structure as drawn. Read-outs that look alike come from different tables or passages of the source.

Experiments:
test strains = assay: Antimicrobial activity in vitro, test strains overall; assay type: cell-based
Experimental: (§1) The effect of the first aspect of the present invention resides in the creation of a novel and useful 16-membered macrolide derivative. Antimicrobial activities of the compounds of the present invention were determined by measuring minimum inhibitory concentration (MIC). Minimum inhibitory concentration was determined by the agar plate dilution method in the following manner.
(§2) Test strains were subjected to seed culture using Sensitivity test broth (STB, Nissui Pharmaceutical) except that the strains belonging to the genus Streptococcus, Branhamella and Haemophilus were cultured on blood agar plate. A 5 μl portion of cell suspension of the test strains having about 10^6 CFU/ml was inoculated into Sensitivity disk agar (SDA, Nissui Pharmaceutical) supplemented with 5% horse blood and incubated at 37° C. for 20 hours. Then, MIC was measured. […] Antimicrobial activities in vitro of the compounds (1) and (2) are shown in Table 1, and those of the compounds (3) and (4) in Table 3.

Branhamella catarrhalis = assay: Antimicrobial activity in vitro; assay type: cell-based; conditions: vs compound (5)
Experimental: as §1, §2

B. catarrhalis W-0500 = assay: MIC, agar plate dilution method; assay type: cell-based; conditions: Moraxella catarrhalis
Experimental: as §1, §2

B. catarrhalis W-0506 = assay: MIC, agar plate dilution method; assay type: cell-based; conditions: Moraxella catarrhalis
Experimental: as §1, §2

E. coli NIHJ JC-2 = assay: MIC, agar plate dilution method; assay type: cell-based; conditions: Escherichia coli, NIHJJC2, 20 h, 37° C., SDA with 5% horse blood, read-out: Antimicrobial activity (MIC)
Experimental: as §1, §2

E. faecalis W-73 = assay: MIC, agar plate dilution method; assay type: cell-based; conditions: Enterococcus faecalis, W73, 20 h, read-out: Antimicrobial activity (MIC)
Experimental: as §1, §2

H. influenzae 9334 = assay: MIC, agar plate dilution method; assay type: cell-based; conditions: Haemophilus influenzae, 9334, 20 h, read-out: Antimicrobial activity (MIC), 37° C., 20 hours, SDA with 5% horse blood
Experimental: as §1, §2

H. influenzae Type b = assay: MIC, agar plate dilution method; assay type: cell-based; conditions: Haemophilus influenzae, 20 h, read-out: Antimicrobial activity (MIC), 37° C., 20 hours, SDA with 5% horse blood
Experimental: as §1, §2

K. pneumoniae PCI602 = assay: MIC, agar plate dilution method; assay type: cell-based; conditions: Klebsiella pneumoniae, PCI602, 20 h, 37° C., SDA with 5% horse blood, read-out: Antimicrobial activity (MIC)
Experimental: as §1, §2

M. luteus ATCC9341 = assay: MIC, agar plate dilution method; assay type: cell-based; conditions: Micrococcus luteus
Experimental: as §1, §2

S. aureus 209P JC-1 = assay: MIC, agar plate dilution method; assay type: cell-based; conditions: Staphylococcus aureus, 209P, 20 h, read-out: Antimicrobial activity (MIC), 37° C., 20 hours, SDA with 5% horse blood
Experimental: as §1, §2

S. aureus M126 = assay: MIC, agar plate dilution method; assay type: cell-based; conditions: Staphylococcus aureus, 37° C., 20 hours, SDA with 5% horse blood, read-out: Antimicrobial activity (MIC)
Experimental: as §1, §2

S. aureus M133 = assay: MIC, agar plate dilution method; assay type: cell-based; conditions: Staphylococcus aureus, M133, 20 h, read-out: Antimicrobial activity (MIC), 37° C., 20 hours, SDA with 5% horse blood
Experimental: as §1, §2

S. aureus MS15009/pMS98 = assay: MIC, agar plate dilution method; assay type: cell-based; conditions: Staphylococcus aureus, MS15009/PMS98, 20 h, read-out: Antimicrobial activity (MIC), 37° C., 20 hours, SDA with 5% horse blood
Experimental: as §1, §2

S. aureus MS15009/pMS99 = assay: MIC, agar plate dilution method; assay type: cell-based; conditions: Staphylococcus aureus, MS15009/PMS99, 20 h, read-out: Antimicrobial activity (MIC)
Experimental: as §1, §2

S. aureus MS15026 = assay: MIC, agar plate dilution method; assay type: cell-based; conditions: Staphylococcus aureus, 37° C., 20 hours, SDA with 5% horse blood, read-out: Antimicrobial activity (MIC)
Experimental: as §1, §2

S. aureus MS15027 = assay: MIC, agar plate dilution method; assay type: cell-based; conditions: Staphylococcus aureus, MS15027, 20 h, read-out: Antimicrobial activity (MIC), 37° C., 20 hours, SDA with 5% horse blood
Experimental: as §1, §2

S. epidermidis ATCC14990 = assay: MIC, agar plate dilution method; assay type: cell-based; conditions: Staphylococcus epidermidis, ATCC14990, 20 h, read-out: Antimicrobial activity (MIC), 37° C., 20 hours, SDA with 5% horse blood
Experimental: as §1, §2

S. pneumoniae IP692 = assay: MIC, agar plate dilution method; assay type: cell-based; conditions: Streptococcus pneumoniae, IP692, 20 h, read-out: Antimicrobial activity (MIC), 37° C., 20 hours, SDA with 5% horse blood
Experimental: as §1, §2

S. pneumoniae Type 1 = assay: MIC, agar plate dilution method; assay type: cell-based; conditions: Streptococcus pneumoniae, TYPE1, 20 h, read-out: Antimicrobial activity (MIC), 37° C., 20 hours, SDA with 5% horse blood
Experimental: as §1, §2

S. pyogenes Cook = assay: MIC, agar plate dilution method; assay type: cell-based; conditions: Streptococcus pyogenes, 20 h, read-out: Antimicrobial activity (MIC), 37° C., 20 hours, SDA with 5% horse blood
Experimental: as §1, §2

[1] = literature; cited from earlier work
Streptococcus pneumoniae = assay: Antimicrobial activity in vitro; assay type: cell-based; conditions: compared with MDM and LM-A7
Experimental: as §1, §2

[2] = tested on: clinically important Gram-positive bacteria; assay: Antimicrobial activity / growth inhibition; assay type: cell-based
Experimental: as §1, §2

Row | SMILES | MIC (H. influenzae Type b) [µg/mL] | MIC (K. pneumoniae PCI602) [µg/mL] | MIC (S. aureus 209P JC-1) [µg/mL] | MIC (S. aureus M126) [µg/mL] | MIC (S. aureus M133) [µg/mL] | MIC (S. aureus MS15009/pMS98) [µg/mL] | MIC (S. aureus MS15009/pMS99) [µg/mL] | MIC (S. aureus MS15026) [µg/mL] | MIC (S. aureus MS15027) [µg/mL] | MIC (S. epidermidis ATCC14990) [µg/mL] | MIC (S. pneumoniae IP692) [µg/mL] | MIC (S. pneumoniae Type 1) [µg/mL] | further results
1 | CO[C@@H]1[C@@H](O[C@@H]2O[C@H](C)[C@@H](O[C@H]3C[C@@](C)(OC)[C@@H](OC(=O)CC(C)C)[C@H](C)O3)[C@H](N(C)C)[C@H]2O)[C@@H](CC=O)C[C@@H](C)[C@@H](OC(C)=O)/C=C/C=C/C[C@@H](C)OC(=O)C[C@H]1OC(C)=O [(11), 9-O-acetyl-3"-O-methyljosamycin] | – | – | – | – | – | – | – | – | – | – | – | – | antimicrobial activities in vitro compared with miokamycin (test strains; vs miokamycin (MOM)): comparable to or higher; antimicrobial activity against Branhamella catarrhalis compared with compound (5) (Branhamella catarrhalis): slightly superior to that of the compound (5)
2 | CCC(=O)O[C@@H]1CC(=O)O[C@H](C)C/C=C/C=C/[C@H](OC(C)=O)[C@H](C)C[C@H](CC=O)[C@H](O[C@@H]2O[C@H](C)[C@@H](O[C@H]3C[C@@](C)(OC(C)=O)[C@@H](OC(=O)CC)[C@H](C)O3)[C@H](N(C)C)[C@H]2O)[C@H]1OC [MOM, miokamycin, reference compound] | 50 (≈ 55.7 µM) | > 100 | 0.39 (≈ 0.434 µM) | > 100 | 0.78 (≈ 0.869 µM) | 0.78 (≈ 0.869 µM) | > 100 | > 100 | 0.78 (≈ 0.869 µM) | 0.78 (≈ 0.869 µM) | 0.2 (≈ 0.223 µM) | 0.2 (≈ 0.223 µM) | MIC (B. catarrhalis W-0500; W0500, 37° C., 20 hours, SDA with 5% horse blood, read-out: Antimicrobial activity (MIC)): 1.56 µg/mL (≈ 1.74 µM); MIC (B. catarrhalis W-0506; W0506, 37° C., 20 hours, SDA with 5% horse blood, read-out: Antimicrobial activity (MIC)): 1.56 µg/mL (≈ 1.74 µM); MIC (E. coli NIHJ JC-2): > 100 µg/mL; MIC (E. faecalis W-73): 6.25 µg/mL (≈ 6.96 µM); MIC (H. influenzae 9334): 6.25 µg/mL (≈ 6.96 µM); MIC (M. luteus ATCC9341; ATCC9341, 20 h, read-out: Antimicrobial activity (MIC), 37° C., 20 hours, SDA with 5% horse blood): 0.1 µg/mL (≈ 0.111 µM); MIC (S. pyogenes Cook): 0.2 µg/mL (≈ 0.223 µM); metabolism and loss of antimicrobial activity after oral administration [1]: an acyl group of a neutral sugar moiety of the administered drug is cleaved with time and antimicrobial activities of the drug itself therefore is reduced gradually
3 | CCC(=O)O[C@@H]1CC(=O)O[C@H](C)C/C=C/C=C/[C@H](O)[C@H](C)C[C@H](CC=O)[C@H](O[C@@H]2O[C@H](C)[C@@H](O[C@H]3C[C@@](C)(OC)[C@@H](OC(=O)CC)[C@H](C)O3)[C@H](N(C)C)[C@H]2O)[C@H]1OC [(1), 3"-O-methylmidecamycin A1] | 12.5 (≈ 15.1 µM) | > 100 | 0.2 (≈ 0.242 µM) | > 100 | 0.39 (≈ 0.471 µM) | 0.2 (≈ 0.242 µM) | > 100 | > 100 | 0.39 (≈ 0.471 µM) | 0.78 (≈ 0.942 µM) | 0.1 (≈ 0.121 µM) | 0.1 (≈ 0.121 µM) | MIC (B. catarrhalis W-0500; W0500, 20 h, read-out: Antimicrobial activity (MIC), 37° C., 20 hours, SDA with 5% horse blood): 0.78 µg/mL (≈ 0.942 µM); MIC (B. catarrhalis W-0506; W0506, 20 h, read-out: Antimicrobial activity (MIC), 37° C., 20 hours, SDA with 5% horse blood): 0.78 µg/mL (≈ 0.942 µM); MIC (E. faecalis W-73; 37° C., 20 hours, SDA with 5% horse blood): 1.56 µg/mL (≈ 1.88 µM); MIC (M. luteus ATCC9341; ATCC9341, 37° C., 20 hours, SDA with 5% horse blood, read-out: Antimicrobial activity (MIC)): 0.05 µg/mL (≈ 0.0604 µM); antimicrobial activities in vitro compared with corresponding compounds having free 3"-hydroxyl (MDM, LM-A7) (test strains; against most of test strains): twice as high; antimicrobial activity against Streptococcus pneumoniae (Streptococcus pneumoniae): considerably improved antimicrobial activity; antimicrobial activities (in words) [2]: strong antimicrobial activities
